Source: US20250228785A1, “MICROCAPSULE, PREPARATION METHOD THEREFOR, AND USE THEREOF IN PREVENTING AND/OR TREATING DAMAGE TO SALIVARY GLANDS CAUSED BY RADIATION THERAPY” (CAPITAL MEDICAL UNIVERSITY, priority 2021, published 2025)
Marks after values point to notes of the source that are not given here.

Experiments:
[1] = Nitrate content in the blood of mice after single gastric gavage; assay type: in vivo; settings: ICR mice, 2 mmol/kg sodium nitrate single gastric gavage
Description: A total of 40 ICR mice (male, 20±4 g) were randomly divided into 4 groups of 10 mice each. […] Blood was collected from vena caudalis at 0 h, and 2, 4, 6, 12, and 24 h after gastric gavage, respectively.

[2] = system: human submandibular gland epithelial cell line (HSG); assay: RTCA cell proliferation after single X-ray irradiation with drugs; assay type: cell-based; settings: Table 5 and FIG. 7
Text: 2) The proliferation plate were taken out, and the medium was refreshed. […] The cells were subjected to single X-ray (RAD SOURCE 2000) irradiation at a dose of 1.22 gy/min and a total dose of 2 gy.
3) After irradiation, detection was continuously carried out.

[3] = system: submandibular gland acinar cells; assay: Vacuole area in submandibular gland acinar cells (HE staining); assay type: in vivo; settings: SD rats, high dose 40.5 mM, 8 weeks after radiotherapy
Text: At 8 weeks after radiotherapy, the micrographs (×40) of the HE stained submandibular gland tissues of the rats in each experimental group were shown in FIG. 9A on the right of the panel of FIG. 9. See FIG. 9B on the left of the panel of FIG. 9.

AQP5 = AQP5 expression level in submandibular gland acinar cells (immunofluorescence); assay type: in vivo; settings: SD rats, 8 weeks after radiotherapy
Text: The immunofluorescence staining photographs (×20 under microscope) of the paraffin sections of the submandibular gland of the rats in each experimental group at 8 weeks after radiotherapy, and the quantitation results of the expression levels of AQP5 in the submandibular gland acinar cells in each group were shown in FIG. 10 and Table 8.

[4] = Nitrate content in saliva of rats after radiotherapy; assay type: in vivo; settings: SD rats, 4 and 8 weeks after radiotherapy
rat salivary gland = assay: Salivary flow rate of rats before and after radiotherapy; settings: SD rats
[5] = Serum biochemical detection at 8 weeks after radiotherapy; settings: SD rats, 8 weeks after submandibular gland irradiation
[6] = system: human submandibular gland epithelial cell line (HSG); assay: RTCA cell proliferation after addition of drugs (no irradiation); settings: microcapsules 0.25 mM, nitrate 0.5 mM
[7] = HE staining of sections of major organs (heart, liver, spleen, lung, kidney); settings: SD rats
[8] = high dose 40.5 mM in drinking water
[9] = low dose 20.25 mM in drinking water

O=[N+]([O-])[O-].[Na+] [Sodium nitrate, sodium nitrate]
Nitrate content in the blood ([1]; 0 h): 41.8 µmol/L
Nitrate content in the blood ([1]; 2 h): 1052.8 µmol/L
Nitrate content in the blood ([1]; 4 h): 572.4 µmol/L
Nitrate content in the blood ([1]; 6 h): 297.4 µmol/L
Nitrate content in the blood ([1]; 12 h): 45.3 µmol/L
Nitrate content in the blood ([1]; 24 h): 32.7 µmol/L
effect on proliferation of submandibular gland epithelial cells after single irradiation [2]: promote the proliferation
vacuole area in submandibular gland acinar cells as compared with IR group [3]: significantly decreased
expression level of AQP5 versus IR group (AQP5; high dose 40.5 mM): significantly different
expression level of AQP5 versus IR group (AQP5; low dose 20.25 mM): significantly different
nitrate content in saliva, course after administration [4]: relatively stable
salivary flow rate (rat salivary gland; high dose 40.5 mM in drinking water, 1 W after radiotherapy): 0.48 ± 0.25 ml/20 min
salivary flow rate (rat salivary gland; high dose 40.5 mM in drinking water, 2 W after radiotherapy): 1.12 ± 0.20^a ml/20 min
salivary flow rate (rat salivary gland; high dose 40.5 mM in drinking water, 4 W after radiotherapy): 0.91 ± 0.17^a ml/20 min
salivary flow rate (rat salivary gland; high dose 40.5 mM in drinking water, 6 W after radiotherapy): 0.80 ± 0.09^a ml/20 min
salivary flow rate (rat salivary gland; high dose 40.5 mM in drinking water, 8 W after radiotherapy): 0.81 ± 0.13 ml/20 min
salivary flow rate (rat salivary gland; high dose 40.5 mM in drinking water, first column 1 W (1 week before radiotherapy)): 1.37 ± 0.24 ml/20 min
salivary flow rate (rat salivary gland; low dose 20.25 mM in drinking water, 1 W after radiotherapy): 0.60 ± 0.25 ml/20 min
salivary flow rate (rat salivary gland; low dose 20.25 mM in drinking water, 2 W after radiotherapy): 0.95 ± 0.01^a ml/20 min
salivary flow rate (rat salivary gland; low dose 20.25 mM in drinking water, 4 W after radiotherapy): 0.82 ± 0.21^a ml/20 min
salivary flow rate (rat salivary gland; low dose 20.25 mM in drinking water, 6 W after radiotherapy): 0.74 ± 0.12 ml/20 min
salivary flow rate (rat salivary gland; low dose 20.25 mM in drinking water, 8 W after radiotherapy): 0.76 ± 0.09 ml/20 min
salivary flow rate (rat salivary gland; low dose 20.25 mM in drinking water, first column 1 W (1 week before radiotherapy)): 1.34 ± 0.26 ml/20 min
ALP [5, 8]: 112.00 ± 19.69 U/L
ALT [5, 8]: 49.20 ± 10.30 U/L
AST [5, 8]: 116.20 ± 9.44 U/L
Alb [5, 8]: 8.66 ± 0.87 g/L
Ca [5, 8]: 2.41 ± 0.14 mmol/L
Cr [5, 8]: 46.7 ± 14.59 µmol/L
D-Bil [5, 8]: 1.8 ± 1.21 µmol/L
GGT [5, 8]: 5.00 ± 0.71 U/L
Glb [5, 8]: 45.42 ± 3.88 g/L
HDL-C [5, 8]: 2.09 ± 0.43 mmol/L
I-Bil [5, 8]: 1.73 ± 1.57 µmol/L
K [5, 8]: 5.10 ± 0.45 mmol/L
LDH [5, 8]: 747.40 ± 165.67 U/L
LDL-C [5, 8]: 0.24 ± 0.06 mmol/L
Na [5, 8]: 141.66 ± 1.62 mmol/L
P [5, 8]: 2.77 ± 1.01 mmol/L
T-Bil [5, 8]: 3.52 ± 2.00 µmol/L
TC [5, 8]: 1.87 ± 0.38 mmol/L
TCO2 [5, 8]: 30.12 ± 3.07 mmol/L
TG [5, 8]: 0.31 ± 0.38 mmol/L
TP [5, 8]: 54.08 ± 4.11 g/L
Urea [5, 8]: 5.78 ± 1.21 mmol/L
ALP [5, 9]: 95.00 ± 52.85 U/L
ALT [5, 9]: 46.60 ± 16.80 U/L
AST [5, 9]: 123.80 ± 38.49 U/L
Alb [5, 9]: 8.20 ± 1.32 g/L
Ca [5, 9]: 2.39 ± 0.09 mmol/L
Cr [5, 9]: 47.82 ± 12.95 µmol/L
D-Bil [5, 9]: 1.43 ± 0.40 µmol/L
GGT [5, 9]: 5.60 ± 0.89 U/L
Glb [5, 9]: 44.68 ± 1.80 g/L
HDL-C [5, 9]: 2.13 ± 0.71 mmol/L
I-Bil [5, 9]: 1.43 ± 1.07 µmol/L
K [5, 9]: 5.31 ± 0.48 mmol/L
LDH [5, 9]: 1212.44 ± 728.19 U/L
LDL-C [5, 9]: 0.27 ± 0.06 mmol/L
Na [5, 9]: 140.72 ± 1.47 mmol/L
P [5, 9]: 2.37 ± 0.22 mmol/L
T-Bil [5, 9]: 2.52 ± 1.37 µmol/L
TC [5, 9]: 2.05 ± 0.71 mmol/L
TCO2 [5, 9]: 30.26 ± 2.68 mmol/L
TG [5, 9]: 0.57 ± 0.42 mmol/L
TP [5, 9]: 52.88 ± 2.40 g/L
effect on proliferation of submandibular gland epithelial cells under normal conditions [6]: promote the proliferation
effect on the organs in the body of the rats ([7]; continuous administration of 40.5 mM for 9 weeks): no significant effect
abnormality in the major organs, HE stained sections ([7]; high dose 40.5 mM, 8 weeks after radiotherapy, FIG. 12): no abnormality

O=C1O[C@H]([C@@H](O)CO)C(O)=C1O [Vc, vitamin C]
effect on proliferation of submandibular gland epithelial cells after single irradiation [2]: promote the proliferation
